In the supplement of paper PMC11061612:

Columns and labels:
Hey (Ovarian Carcinoma) = assay: Bliss excess, mean over the matrix (fraction); higher = more synergy
How it was run: (§1)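 Bliss excess equals the observed combination effect minus the expected value EA + EB − EA·EB, where EA and EB are the effects of each agent alone. Combination Emax is the second-highest inhibition within the matrix. Inhibition was scaled from CellTiter-Glo 2.0 luminescence, with 0 set by vehicle wells and 1 by blank wells, after 72 hours of two-drug dosing of cells plated in 1536-well plates.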

[1] = test system: NCI-H1092 (Small Cell Lung Carcinoma); assay: as above
How it was run: as §1

[2] = test system: COLO-668 (Small Cell Lung Carcinoma); assay: combination Emax (second highest fraction inhibited in the dose matrix, 72 h); higher = more inhibition; extreme values may be limits of the assay
How it was run: as §1

COLO-679 (Melanoma) = assay: as above
How it was run: as §1

[3] = test system: Ca-Ski (Cervical Carcinoma); assay: as above
How it was run: as §1

[4] = test system: DU-145 (Prostate Carcinoma); assay: as above
How it was run: as §1

EW-1 (Ewing's Sarcoma) = assay: as above
How it was run: as §1

[5] = test system: G-401 (Other Solid Carcinomas); assay: as above
How it was run: as §1

[6] = test system: KMRC-1 (Kidney Carcinoma); assay: as above
How it was run: as §1

[7] = test system: LC-1-sq (Squamous Cell Lung Carcinoma); assay: as above
How it was run: as §1

[8] = test system: ML-2 (Acute Myeloid Leukemia); assay: as above
How it was run: as §1

[9] = test system: MV-4-11 (Acute Myeloid Leukemia); assay: as above
How it was run: as §1

[10] = test system: Mo-T (Other Blood Carcinomas); assay: as above
How it was run: as §1

[11] = test system: NCI-H1355 (Lung Adenocarcinoma); assay: as above
How it was run: as §1

[12] = test system: NCI-H522 (Lung Adenocarcinoma); assay: as above
How it was run: as §1

[13] = test system: OE33 (Esophageal Adenocarcinoma); assay: as above
How it was run: as §1

[14] = test system: SK-LU-1 (Lung Adenocarcinoma); assay: as above
How it was run: as §1

[15] = test system: SNU-387 (Hepatocellular Carcinoma); assay: as above
How it was run: as §1

[16] = test system: SW872 (Other Solid Carcinomas); assay: as above
How it was run: as §1

[17] = test system: SW982 (Other Solid Carcinomas); assay: as above
How it was run: as §1

Compound | Bliss excess (Hey (Ovarian Carcinoma)) | Bliss excess [1] | combination Emax [2] | combination Emax (COLO-679 (Melanoma)) | combination Emax [3] | combination Emax [4] | combination Emax (EW-1 (Ewing's Sarcoma)) | combination Emax [5] | combination Emax [6] | combination Emax [7] | combination Emax [8] | combination Emax [9] | combination Emax [10] | combination Emax [11] | combination Emax [12] | combination Emax [13] | combination Emax [14] | combination Emax [15] | combination Emax [16] | combination Emax [17]
COc1nnc2ccc(N3CCC(c4ccc(OCCN5CCN(C)C(=O)[C@H]5C)cc4)CC3)nn12 [AZD5153] + CC1(C)CCC(CN2CCN(c3ccc(C(=O)NS(=O)(=O)c4ccc(NCC5CCOCC5)c([N+](=O)[O-])c4)c(Oc4cnc5[nH]ccc5c4)c3)CC2)=C(c2ccc(Cl)cc2)C1 [Venetoclax] (first compound max 1 µM, 7x7, partner max 1 µM) | -0.0568 | 0.0191 | 0.811 | 0.442 | 0.616 | 0.288 | 0.56 | 0.821 | 0.263 | 0.603 | 1 | 1 | 0.611 | 0.327 | 0.415 | 0.19 | 0.358 | 0.434 | 0.561 | 0.767
CC(=O)c1c(C)c2cnc(Nc3ccc(N4CCNCC4)cn3)nc2n(C2CCCC2)c1=O [Palbociclib] + CC1(C)CCC(CN2CCN(c3ccc(C(=O)NS(=O)(=O)c4ccc(NCC5CCOCC5)c([N+](=O)[O-])c4)c(Oc4cnc5[nH]ccc5c4)c3)CC2)=C(c2ccc(Cl)cc2)C1 [Venetoclax] (first compound max 10 µM, 7x7, partner max 1 µM) | 0.0511 | -0.0224 | 0.114 | 0.0736 | 0.131 | 0.0454 | 0.528 | 0.849 | 0.162 | 0.166 | 0.949 | 1 | 0.297 | 0.242 | 0.127 | 0.121 | 0.279 | 0.129 | 0.0843 | 0.57
NC1(C(=O)N[C@@H](CCO)c2ccc(Cl)cc2)CCN(c2ncnc3[nH]ccc23)CC1 [Capivasertib] + COc1nnc2ccc(N3CCC(c4ccc(OCCN5CCN(C)C(=O)[C@H]5C)cc4)CC3)nn12 [AZD5153] (first compound max 10 µM, 7x7, partner max 1 µM) | 0.0206 | -0.0087 | 0.786 | 0.578 | 0.591 | 0.251 | 0.71 | 0.79 | 0.557 | 0.815 | 0.997 | 1 | 0.649 | 0.503 | 0.381 | 0.319 | 0.381 | 0.552 | 0.553 | 0.848
C=CCn1c(=O)c2cnc(Nc3ccc(N4CCN(C)CC4)cc3)nc2n1-c1cccc(C(C)(C)O)n1 [AZD1775] + C1CN(CCC1(C(=O)N[C@@H](CCO)C2=CC=C(C=C2)Cl)N)C3=NC=NC4=C3C=CN4 [Capivasertib] (first compound max 3 µM, partner max 3 µM) | -0.0475 | -0.0497 | 0.545 | 0.412 | 0.825 | 0.449 | 0.963 | 0.646 | 0.593 | 0.761 | 0.994 | – | 0.894 | 0.646 | 0.612 | 0.639 | 0.634 | 0.687 | – | 0.674
NC1(C(=O)N[C@@H](CCO)c2ccc(Cl)cc2)CCN(c2ncnc3[nH]ccc23)CC1 [Capivasertib] + CC(=O)c1c(C)c2cnc(Nc3ccc(N4CCNCC4)cn3)nc2n(C2CCCC2)c1=O [Palbociclib] (first compound max 10 µM, 7x7, partner max 10 µM) | 0.0123 | -0.0612 | 0.437 | 0.324 | 0.462 | 0.166 | 0.608 | 0.898 | 0.457 | 0.206 | 0.593 | 0.861 | 0.4 | 0.472 | 0.172 | 0.259 | 0.4 | 0.312 | 0.413 | 0.607
CS(=O)(=O)CCNCc1ccc(-c2ccc3ncnc(Nc4ccc(OCc5cccc(F)c5)c(Cl)c4)c3c2)o1 [Lapatinib] + C[C@@H](Oc1cc(-c2cnn(C3CCNCC3)c2)cnc1N)c1c(Cl)ccc(F)c1Cl [Crizotinib] (first compound max 10 µM, 7x7, partner max 10 µM) | -0.0526 | 0.0103 | 0.665 | 0.68 | 0.969 | 0.286 | 0.966 | 0.942 | 0.952 | 0.931 | 0.983 | 0.978 | 0.88 | 0.564 | 0.457 | 0.909 | 0.451 | 0.93 | 0.496 | 0.968
COc1nnc2ccc(N3CCC(c4ccc(OCCN5CCN(C)C(=O)[C@H]5C)cc4)CC3)nn12 [AZD5153] + C=CCn1c(=O)c2cnc(Nc3ccc(N4CCN(C)CC4)cc3)nc2n1-c1cccc(C(C)(C)O)n1 [AZD1775] (first compound max 1 µM, partner max 1 µM) | -0.0997 | 0.0051 | 0.665 | 0.505 | 0.791 | 0.316 | 0.883 | 0.914 | 0.358 | 0.665 | 1 | 1 | 0.729 | 0.57 | 0.51 | 0.435 | 0.442 | 0.469 | 0.593 | 0.825
Cn1cnc2c(F)c(Nc3ccc(Br)cc3Cl)c(C(=O)NOCCO)cc21 [Selumetinib] + CCN(CCO)CCCOc1ccc2c(Nc3cc(CC(=O)Nc4cccc(F)c4)[nH]n3)ncnc2c1 [AZD2811] (first compound max 10 µM, 7x7, partner max 1 µM) | -0.0165 | -0.0083 | 0.407 | 0.815 | 0.54 | 0.203 | 0.391 | 0.561 | 0.233 | 0.303 | 1 | 0.974 | 0.238 | 0.275 | 0.171 | 0.364 | 0.301 | 0.319 | 0.285 | 0.594
C=CCn1c(=O)c2cnc(Nc3ccc(N4CCN(C)CC4)cc3)nc2n1-c1cccc(C(C)(C)O)n1 [AZD1775] + O=C(c1cc(Cc2n[nH]c(=O)c3ccccc23)ccc1F)N1CCN(C(=O)C2CC2)CC1 [Olaparib] (first compound max 1 µM, partner max 10 µM) | -0.0327 | -0.0342 | 0.566 | 0.491 | 0.797 | 0.255 | 0.907 | 0.769 | 0.279 | 0.901 | 1 | 0.978 | 0.456 | 0.614 | 0.363 | 0.507 | 0.436 | 0.567 | 0.336 | 0.787
Cc1c2c(nn1C)CSCc1cc(n(C)n1)CSc1cc(c3ccccc3c1)OCCCc1c(C(=O)O)n(C)c3c-2c(Cl)ccc13 [AZD5991] + CN(C)CCCOc1ccc(-c2ccc3ncc4c(c3c2)n(C2CCOCC2)c(=O)n4C)cn1 [AZD0156] (first compound max 1 µM, 7x7, partner max 1 µM) | -0.0039 | 0.0063 | 0.222 | 0.243 | 0.303 | 0.192 | 0.375 | 0.733 | 0.197 | 0.258 | 1 | 1 | 0.229 | 0.263 | 0.387 | 0.156 | 0.3 | 0.376 | 0.226 | 0.258
CN(C)CCCOc1ccc(-c2ccc3ncc4c(c3c2)n(C2CCOCC2)c(=O)n4C)cn1 [AZD0156] + O=C(c1cc(Cc2n[nH]c(=O)c3ccccc23)ccc1F)N1CCN(C(=O)C2CC2)CC1 [Olaparib] (first compound max 3 µM, partner max 3 µM) | 0.106 | 0.0028 | 0.179 | 0.225 | 0.304 | 0.0116 | 0.684 | 0.3 | 0.151 | 0.184 | 0.478 | – | 0.402 | 0.305 | 0.258 | 0.207 | 0.334 | 0.405 | 0.272 | 0.4
CN(CCO)CC[C@H](CSc1ccccc1)Nc1ccc(S(=O)(=O)NC(=O)c2ccc(N3CCC([C@@H](O)c4ccccc4-c4ccc(Cl)cc4)CC3)cc2)cc1S(=O)(=O)C(F)(F)F [AZD4320] + C=CCn1c(=O)c2cnc(Nc3ccc(N4CCN(C)CC4)cc3)nc2n1-c1cccc(C(C)(C)O)n1 [AZD1775] (first compound max 1 µM, partner max 1 µM) | -0.053 | 0.0527 | – | 0.521 | 0.96 | 0.213 | 1 | 0.901 | 0.278 | 0.869 | 1 | 1 | 0.984 | 0.594 | 0.237 | 0.492 | 0.542 | 0.681 | 0.3 | 0.953
Cc1c2c(nn1C)CSCc1cc(n(C)n1)CSc1cc(c3ccccc3c1)OCCCc1c(C(=O)O)n(C)c3c-2c(Cl)ccc13 [AZD5991] + C[C@@H](Nc1cc(F)cc(F)c1)c1cc(C(=O)N(C)C)cc2c(=O)cc(N3CCOCC3)oc12 [AZD8186] (first compound max 1 µM, 7x7, partner max 3 µM) | 0.0023 | 0.0172 | 0.205 | 0.332 | 0.556 | 0.179 | 0.367 | 0.612 | 0.639 | 0.24 | 1 | 1 | 0.319 | 0.227 | 0.452 | – | 0.384 | 0.41 | 0.321 | 0.443
